For one molecule, Kd results are on record in article PMC6850767, “Light-at-night exposure affects brain development through pineal allopregnanolone-dependent mechanisms” (eLife, 2019).

The target of the assay is T1, chicken mPRα (membrane progesterone receptor α) (Gallus gallus, UniProt C6KGD4).
T1 construct: gene PAQR7; membrane fraction or whole cells; band approx. 42 kDa
T1 sequence (C6KGD4 1-346): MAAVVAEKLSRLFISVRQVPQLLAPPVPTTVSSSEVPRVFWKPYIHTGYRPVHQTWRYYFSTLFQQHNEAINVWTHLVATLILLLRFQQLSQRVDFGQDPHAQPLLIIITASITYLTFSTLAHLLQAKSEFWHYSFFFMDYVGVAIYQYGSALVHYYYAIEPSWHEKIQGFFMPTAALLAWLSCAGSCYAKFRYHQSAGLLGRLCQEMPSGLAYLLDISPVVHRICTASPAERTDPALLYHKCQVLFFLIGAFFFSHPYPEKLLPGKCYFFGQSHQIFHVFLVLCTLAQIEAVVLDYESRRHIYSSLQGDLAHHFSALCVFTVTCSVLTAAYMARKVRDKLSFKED
Description: radioligand saturation binding, Scatchard plot, cell membrane fraction.

SMILES strings stand for the structures.

In turn, `CC(=O)[C@H]1CC[C@H]2[C@@H]3CC[C@H]4C[C@H](O)CC[C@]4(C)[C@H]3CC[C@]12C` [compound 2, allopregnanolone] registered a Kd of 11.8 ± 3.1 nM.
